This note sets out measurements from patent publication US6479435B1, “Diaryl ethers and processes for their preparation and herbicidal and desiccant compositions containing them” (ISK Americas Incorporated, priority 1997, dated 2002).

Format in all cases: in vivo
Series [1] concerns field corn (Zea mays L., var. Dekalb 535, CORN). The series can be described thus: Post-emerge greenhouse test, crop damage rating. Particulars: 1000 g al/ha, 14 days after application. The text has this:
(§1) A standard greenhouse herbicide activity screening system was used to evaluate the herbicidal efficacy and crop safety of these test compounds. Six broadleaf weed species including redroot pigweed (Amaranthus retroflexus, AMARE), velvetleaf (Abutilon theophrasti, ABUTH), sicklepod (Cassia obtusifolia, CASOB), ivyleaf morningglory (Ipomoea hederacea, IPOHE), lambsquarters (Chenopodium album, CHEAL) and common ragweed (Ambrosia artemisiifolia L., AMBEL) were used as test species. Four grass weed species including green foxtail (Setaria viridis, SETVI), barnyardgrass (Echinochloa crusgalli, ECHCG), Johnsongrass (Sorghum halepense, SORHA), and large crabgrass (Digitaria sanguinalis, DIGSA) were also used. In addition, three crop species, field corn (Zea mays L., var. Dekalb 535, CORN), soybean (Glycine max L., var. Pella 86, SOY), and upland rice (Oryza sp., var.Tebonnet, RICE) were included.
(§2) All test compounds were dissolved in acetone and applied to the test units in a volume of 187 l/ha. Test materials were applied at rates ranging from 125 g ai/ha to 1000 g ai/ha using a track sprayer equipped with a TJ8001E even flow flat fan spray nozzle. Plants were arranged on a shelf so that the top of the canopy (post-emerge) or top of the soil surface (pre-emerge) was 40-45 cm below the nozzle. Pressurized air was used to force the test solution through the nozzle as it was mechanically advanced (via electrically driven chain drive) over the top of all test plants/pots. This application simulates a typical commercial field herbicide application.
(§3) In the post-emerge test, a commercial non-ionic surfactant was also included (0.25% v/v) to enhance wetting of the leaf surfaces Qf target plants at rates ranging from 63 g ai/ha to 1000 g ai/ha. For post-emerge tests, seeds were planted 8-21 days prior to the test to allow emergence and good foliage development prior to application of the test substances. At the time of the post-emerge application, plants of all species were usually at the 2-3 leaf stage of development. Post-emerge test units were always bottom-watered.
(§4) At 14 days after application of the test materials, phytotoxicity ratings were recorded. A rating scale of 0-100 was used as previously described in Research Methods in Weed Science, 2nd edition, B. Truelove, Ed., Southern Weed Science Society, Auburn University, Auburn, Ala., 1977. Briefly, “0” corresponds to no damage and “100” corresponds to complete death of all plants in the test unit. This scale was used both to determine efficacy against weed species and damage to crop species. Herbicide activity data for various compounds of this invention, which are shown by compound number in Tables 1-9, are shown in Tables 13 and 14.

Series [2] concerns upland rice (Oryza sp., var.Tebonnet, RICE). The experiment in a line: Post-emerge greenhouse test, crop damage rating. Particulars: 1000 g al/ha, 14 days after application.
From the text: as §1, §2, §3, §4

Series [3] deals with redroot pigweed (Amaranthus retroflexus, AMARE). The series can be described thus: Post-emerge greenhouse herbicide test, phytotoxicity rating. Particulars: 1000 g al/ha, 14 days after application.
From the text: as §1, §2, §3, §4

Series [4] concerns green foxtail (Setaria viridis, SETVI). The description is as above. Particulars: 1000 g al/ha, 14 days after application.
From the text: as §1, §2, §3, §4

The test system of series [5] is lambsquarters (Chenopodium album, CHEAL). Described as above. Particulars: 1000 g al/ha, 14 days after application.
From the text: as §1, §2, §3, §4

The test system of series [6] is ivyleaf morningglory (Ipomoea hederacea, IPOHE). Described as above. Particulars: 1000 g al/ha, 14 days after application.
From the text: as §1, §2, §3, §4

In series [7] the test system is large crabgrass (Digitaria sanguinalis, DIGSA). The description is as above. Particulars: 1000 g al/ha, 14 days after application.
From the text: as §1, §2, §3, §4

Series [8] concerns velvetleaf (Abutilon theophrasti, ABUTH). The series is described as above. Particulars: 1000 g al/ha, 14 days after application.
From the text: as §1, §2, §3, §4

Series [9] deals with barnyardgrass (Echinochloa crusgalli, ECHCG). Described as above. Particulars: 1000 g al/ha, 14 days after application.
From the text: as §1, §2, §3, §4

The subject of series [10] is sicklepod (Cassia obtusifolia, CASOB). The description is as above. Particulars: 1000 g al/ha, 14 days after application.
From the text: as §1, §2, §3, §4

Series [11] has as its system Johnsongrass (Sorghum halepense, SORHA). The description is as above. Particulars: 1000 g al/ha, 14 days after application.
From the text: as §1, §2, §3, §4

For series [12], the system named is field corn (Zea mays L., var. Dekalb 535, CORN). The experiment in a line: Pre-emerge greenhouse test, crop damage rating. Particulars: 1000 g ai/ha, 14 days after application, rating scale 0-100.
From the text: as §1
(§5) All plants were grown in 10 cm square plastic pots which were filled with a sandy loam soil mix. For preemerge tests, seeds were planted one day prior to application of the test compounds. Immediately after application, test units of the pre-emerge applications were watered at the soil surface to incorporate the test materials. Subsequently, these test units were bottom-watered.
as §2, §4

For series [13], the system named is upland rice (Oryza sp., var.Tebonnet, RICE). The series can be described thus: Pre-emerge greenhouse test, crop damage rating. Particulars: 1000 g ai/ha, 14 days after application, rating scale 0-100.
From the text: as §1, §5, §2, §4

Series [14] deals with soybean (Glycine max L., var. Pella 86, SOY). The experiment in a line: Pre-emerge greenhouse test, crop damage rating. Particulars: 1000 g ai/ha, 14 days after application, rating scale 0-100.
From the text: as §1, §5, §2, §4

Series [15] concerns redroot pigweed (Amaranthus retroflexus, AMARE). The series can be described thus: Pre-emerge greenhouse herbicide test, phytotoxicity rating. Particulars: 1000 g ai/ha, 14 days after application, rating scale 0-100.
From the text: as §1, §5, §2, §4

Series [16] has as its system green foxtail (Setaria viridis, SETVI). The description is as above. Particulars: 1000 g ai/ha, 14 days after application, rating scale 0-100.
From the text: as §1, §5, §2, §4

Series [17] relates to lambsquarters (Chenopodium album, CHEAL). The series is described as above. Particulars: 1000 g ai/ha, 14 days after application, rating scale 0-100.
From the text: as §1, §5, §2, §4

For series [18], the system named is ivyleaf morningglory (Ipomoea hederacea, IPOHE). The description is as above. Particulars: 1000 g ai/ha, 14 days after application, rating scale 0-100.
From the text: as §1, §5, §2, §4

Series [19] relates to large crabgrass (Digitaria sanguinalis, DIGSA). Described as above. Particulars: 1000 g ai/ha, 14 days after application, rating scale 0-100.
From the text: as §1, §5, §2, §4

In series [20] the test system is barnyardgrass (Echinochloa crusgalli, ECHCG). Described as above. Particulars: 1000 g ai/ha, 14 days after application, rating scale 0-100.
From the text: as §1, §5, §2, §4

Series [21] has as its system sicklepod (Cassia obtusifolia, CASOB). Described as above. Particulars: 1000 g ai/ha, 14 days after application, rating scale 0-100.
From the text: as §1, §5, §2, §4

The test system of series [22] is Johnsongrass (Sorghum halepense, SORHA). Described as above. Particulars: 1000 g ai/ha, 14 days after application, rating scale 0-100.
From the text: as §1, §5, §2, §4

Series [23] has as its system soybean (Glycine max L., var. Pella 86, SOY). The experiment in a line: Post-emerge greenhouse test, crop damage rating. Particulars: 1000 g al/ha, 14 days after application.
From the text: as §1, §2, §3, §4

Series [24] has as its system velvetleaf (Abutilon theophrasti, ABUTH). The experiment in a line: Pre-emerge greenhouse herbicide test, phytotoxicity rating. Particulars: 1000 g ai/ha, 14 days after application, rating scale 0-100.
From the text: as §1, §5, §2, §4

As to `N#Cc1ccc(Oc2cc(-n3c(=O)cc4n(c3=O)CCC4)c(F)cc2Cl)nc1` [Compound 5-11], in [1], the “CORN crop damage rating (0-100)” value came to 15. For the same compound, the “RICE crop damage rating (0-100)” value in series [2] came out at 25. Further, the “AMARE phytotoxicity rating (0-100)” value in series [3] came to 70. Also, in [4], the “SETVI phytotoxicity rating (0-100)” value was 10. For the same compound, in [5], the “CHEAL phytotoxicity rating (0-100)” value is on record as 90. Further, the “IPOHE phytotoxicity rating (0-100)” value in [6] was found to be 90. In addition, the “DIGSA phytotoxicity rating (0-100)” value in [7] worked out at 0. Further, in series [8], the “ABUTH phytotoxicity rating (0-100)” value worked out at 100. For the same compound, in series [9], the “ECHCG phytotoxicity rating (0-100)” value is 20. For the same compound, the “CASOB phytotoxicity rating (0-100)” value in series [10] amounted to 10. Moreover, the “SORHA phytotoxicity rating (0-100)” value in series [11] is recorded as 20. In addition, the “crop damage rating CORN” value in series [12] was found to be 30. Also, the “crop damage rating RICE” value in [13] turned out to be 80. Besides, the “crop damage rating SOY” value in series [14] is reported as 60. For the same compound, the “phytotoxicity rating AMARE” value in series [15] is listed as 80. The “phytotoxicity rating SETVI” value in series [16] came to 95. The “phytotoxicity rating CHEAL” value in [17] was found to be 100. The “phytotoxicity rating IPOHE” value in series [18] amounted to 80. Besides, in series [19], the “phytotoxicity rating DIGSA” value is recorded as 90. In [20], the “phytotoxicity rating ECHCG” value is 95. For the same compound, in series [21], the “phytotoxicity rating CASOB” value turned out to be 30. In [22], the “phytotoxicity rating SORHA” value is listed as 99. The “SOY crop damage rating (0-100)” value in series [23] is listed as 40.

In the case of `O=c1cc2n(c(=O)n1-c1cc(Oc3ncccc3C(F)(F)F)c(Cl)cc1F)CCC2` [Compound 5-10, 2-[4-chloro-2-fluoro-5-(3-trifluoromethyl-2-pyridyloxy)phenyl]-6,7-dihydropyrrolo[1,2-c]pyrimidine-1,3(2H,5H)dione], the “AMARE phytotoxicity rating (0-100)” value in series [3] is given as 80. In addition, in series [4], the “SETVI phytotoxicity rating (0-100)” value is 20. Besides, the “CHEAL phytotoxicity rating (0-100)” value in series [5] was determined as 80. In series [6], the “IPOHE phytotoxicity rating (0-100)” value is 70. Moreover, the “DIGSA phytotoxicity rating (0-100)” value in [7] was 10. Further, the “ABUTH phytotoxicity rating (0-100)” value in series [8] worked out at 100. Moreover, the “ECHCG phytotoxicity rating (0-100)” value in series [9] came out at 80. Besides, in [10], the “CASOB phytotoxicity rating (0-100)” value worked out at 30. For the same compound, the “SORHA phytotoxicity rating (0-100)” value in [11] stood at 70. The “phytotoxicity rating AMARE” value in series [15] is 100. The “phytotoxicity rating SETVI” value in series [16] is recorded as 100. Besides, in [17], the “phytotoxicity rating CHEAL” value came to 100. Moreover, in series [18], the “phytotoxicity rating IPOHE” value came to 100. For the same compound, the “phytotoxicity rating DIGSA” value in series [19] is on record as 100. In addition, the “phytotoxicity rating ABUTH” value in series [24] is 100. Besides, in series [20], the “phytotoxicity rating ECHCG” value came to 100. Besides, the “phytotoxicity rating CASOB” value in [21] is 0. In series [22], the “phytotoxicity rating SORHA” value turned out to be 100.
